# Literature values as cited in patent US6280768A, “Berberine alkaloids as a treatment for chronic protozoally induced diarrhea” (PRM Pharmaceuticals, Inc., priority 1997, dated 2001).
# Experiments:
# [1] = test system: E. bieneusi; settings: cited from earlier work
# [2] = test system: microsporidia; settings: some AIDS patients; cited from earlier work
# [3] = test system: microsporidiosis; settings: cited from earlier work
# [4] = test system: E. intestinalis; settings: cited from earlier work
# [5] = test system: Enterocytozoon bieneusi; settings: cited from earlier work
smiles,measurement,setting,value
CCCSc1ccc2nc(NC(=O)OC)[nH]c2c1 [albendazole],E. bieneusi spores in small bowel biopsies,[1]; following treatment,spores were still present
same,symptoms and parasite burden,[1]; some of 29 patients,improved symptoms and reduced the parasite burden in some of their 29 patients
same,relief of diarrhea,[2],temporarily relieve the diarrhea of some AIDS patients
same,remission of diarrhea,[3]; 18 AIDS patients,70%
same,arrest of parasite development,"[3]; human, in vivo",did not completely arrest development
same,rate of parasite reproduction,[3]; interfering with tubulin polymerization,slow the rate of parasite reproduction
same,parasite load,[3]; patients who responded,reduction in parasite load in those patients who responded
same,clearing E. intestinalis from the stools,[4]; five AIDS patients,initially effective in clearing E. intestinalis from the stools
same,patients with spores of E. intestinalis again detected in stools,[4]; followed for more than one month,two of four patients
same,duration of relief,"[4]; human, in vivo",relief was only temporary
same,relapse during maintenance therapy,"[4]; human, in vivo",Relapse occurred in one patient
same,reduction in parasite load,[5]; after oral treatment,no significant reduction in parasite load
same,changes in the parasite,"[5]; human, in vivo",degenerative changes in the parasite
same,patients relapsed within one month,"[5]; human, in vivo",Four of five patients relapsed within one month
same,relapse of the fifth patient,"[5]; human, in vivo",the fifth patient relapsed within two months
same,resolution of chronic diarrhea,[5]; six AIDS patients,effective in resolving the chronic diarrhea of six AIDS patients
